{"source": "paper PMC8426299", "about": "“Effect of severe renal impairment on the pharmacokinetics of brigatinib” (Investigational New Drugs, 2021)", "key": {"[1]": {"tested_on": "cytochrome P450 (CYP) 3A4", "set-up": "method as in ref 5, 11 = [5]; 5. Alunbrig brigatinib [summary of product characteristics] (2020) Takeda Pharmaceutical Company Limited. https://www.alunbrig.com/assets/pi.pdf . Accessed 9 Mar 2021 || [11]; PMID 31287236; doi:10.1002/cpdd.723; 11. Tugnait M Gupta N Hanley MJ Sonnichsen D Kerstein D Dorer DJ Venkatakrishnan K Narasimhan N Effects of strong CYP2C8 or CYP3A inhibition and CYP3A induction on the pharmacokinetics of brigatinib", "conditions": "in vitro; cited from earlier work"}, "[2]": {"set-up": "method as in PMID 30570839", "conditions": "cited from earlier work"}, "[3]": {"tested_on": "ALK-positive non–small cell lung cancer (NSCLC)", "set-up": "method as in PMID 31756496", "conditions": "cited from earlier work"}, "[4]": {"set-up": "method as in ref 11 = [11]; PMID 31287236; doi:10.1002/cpdd.723; 11. Tugnait M Gupta N Hanley MJ Sonnichsen D Kerstein D Dorer DJ Venkatakrishnan K Narasimhan N Effects of strong CYP2C8 or CYP3A inhibition and CYP3A induction on the pharmacokinetics of brigatinib", "conditions": "cited from earlier work"}, "native EML4-ALK": {"tested_on": "native EML4-ALK", "set-up": "method as in PMID 27780853", "conditions": "compared with crizotinib, ceritinib, and alectinib; nonclinical studies; cited from earlier work"}, "2C8": {"tested_on": "2C8", "set-up": "method as in ref 5, 11 = [5]; 5. Alunbrig brigatinib [summary of product characteristics] (2020) Takeda Pharmaceutical Company Limited. https://www.alunbrig.com/assets/pi.pdf . Accessed 9 Mar 2021 || [11]; PMID 31287236; doi:10.1002/cpdd.723; 11. Tugnait M Gupta N Hanley MJ Sonnichsen D Kerstein D Dorer DJ Venkatakrishnan K Narasimhan N Effects of strong CYP2C8 or CYP3A inhibition and CYP3A induction on the pharmacokinetics of brigatinib", "conditions": "in vitro; cited from earlier work"}, "[5]": {"experiment": "Safety assessment (adverse events, laboratory, ECG, vital signs) in the single-dose study", "format": "in vivo, human", "conditions": "single 90 mg dose", "protocol": "Adverse events were recorded throughout the study. Physical examinations were performed at screening and on days − 1 and 8; height, weight, and BMI were collected only at screening. Vital signs were recorded at screening; on day − 1; at 0.5, 1, 2, 3, 4, 6, 8, 12, 24, 36, 48, 60, 72, 96, 120, and 144 h after brigatinib administration; and on day 8. Electrocardiograms were conducted at screening, day − 1, before the brigatinib dose, 3 and 48 h after brigatinib, and on day 8. Clinical laboratory evaluations were performed at screening and on days − 1 and 8.\nDescriptive statistics, including number of observations (n), arithmetic mean, standard deviation (SD), coefficient of variation (CV%), median, minimum, and maximum, were calculated for each time point for brigatinib plasma concentrations in each study group. Arithmetic mean; SD; CV%; median, minimum, and maximum values; and geometric mean and geometric CV% were calculated for all PK parameters except Tmax, which was reported as median (minimum, maximum). Statistical comparisons of brigatinib PK parameters (unbound) were made using a one-factor analysis of variance, and 90 % CIs for the geometric mean ratios (GMRs) were calculated for the comparison of Cmax, AUC0 − last, and AUC0−∞ between study groups. Descriptive statistics were used to present safety outcomes, including number and percentage of participants with adverse events."}, "[6]": {"set-up": "method as in earlier work", "conditions": "cited from earlier work"}, "plasma protein": {"tested_on": "plasma protein", "experiment": "Plasma protein binding of brigatinib by rapid equilibrium dialysis (RED) of participants' plasma samples", "format": "in vitro ADME, human", "protocol": "(§1) Blood samples were collected at 2, 8, and 24 h after brigatinib administration to determine the plasma protein binding of brigatinib.\n(§2) Free brigatinib in plasma samples was separated from protein-bound brigatinib by dialyzing the samples across a semipermeable dialysis membrane (8000-Da mass cutoff) using Thermo Scientific™ Single-Use RED (rapid equilibrium dialysis) Plates. For each RED dialysis unit, an aliquot (200 µL) of plasma was transferred into the donor chamber and an aliquot (350 µL) of warm (37 °C) phosphate buffered saline (PBS) was transferred into the receiver chamber of the dialysis unit. The RED devices were incubated at 37 °C with gentle shaking (250 rpm on a rotator shaker) for six hours. A 125-µL aliquot of plasma and 150-µL aliquot of PBS were removed from the dialysis unit and matrix-matched to a final composition of 50:50 (v:v) plasma:PBS, in Rain-X® treated 96-well plates. The matrix-matched samples were immediately frozen at − 80 °C. The protein binding assay and sample analysis were conducted at Charles River Laboratories, Inc. (Worcester, MA, USA). Samples were analyzed for brigatinib concentrations using liquid chromatography with tandem mass spectrometry (LC-MS/MS) methods that have been previously reported using a dual-range assay with a lower limit of quantitation of 0.100 ng/mL and an upper limit of quantitation of 500 ng/mL.\n(§3) Individual participant plasma concentration-time profiles were analyzed via noncompartmental analysis methods using Phoenix WinNonlin (version 6.4) to estimate PK parameters. Plasma PK parameters calculated for brigatinib included maximum observed plasma concentration (Cmax); Tmax; area under the plasma concentration-time curve from time zero to the time of the last measurable concentration (AUC0 − last); AUC from time zero to infinity (AUC0−∞); terminal elimination half-life (t1/2); apparent oral clearance (CL/F); and apparent volume of distribution (V/F). The fraction of unbound brigatinib in plasma was determined using the following formula: % free (unbound) = [free brigatinib concentration measured in buffer after RED]/[total concentration measured in plasma] X 100. Unbound brigatinib plasma PK parameters (except unbound CL/F and V/F, which were calculated as total CL/F or total V/F divided by the overall mean fraction unbound) were calculated using the following formula: unbound PK parameter = (parameter based on total concentrations) x (individual participant’s overall mean fraction unbound value). Urinary PK parameters included the amount of brigatinib excreted from time zero to time t (Ae0 − t,), fraction of the dose excreted (%) from time zero to time t (Fe0 − t), and renal clearance (CLR)."}, "[7]": {"experiment": "Plasma protein binding of brigatinib by rapid equilibrium dialysis (RED) of participants' plasma samples", "format": "in vitro ADME, human", "conditions": "human, plasma samples of dosed participants, averaged over 2, 8, 24 h postdose, read-out: overall mean (SD) fraction unbound (converted)", "protocol": "as §1, §2, §3"}, "[8]": {"conditions": "NSCLC progressed on crizotinib, 180 mg qd with seven-day lead-in at 90 mg, median follow-up 24 months"}, "[9]": {"conditions": "patients with baseline brain metastases"}}, "note": "Read-outs that look alike come from different tables or passages of the source.", "data": [{"smiles": "COc1cc(N2CCC(N3CCN(C)CC3)CC2)ccc1Nc1ncc(Cl)c(Nc2ccccc2P(C)(C)=O)n1", "note": "[brigatinib]", "values": [{"measurement": "contribution of CYP3A4 to metabolism", "setting": "[1]", "result": "primarily metabolized"}, {"measurement": "effect of a high-fat meal on total exposure (AUC)", "setting": "[2]", "result": "no effect"}, {"measurement": "independent review committee-assessed confirmed objective response rate (ORR)", "setting": "[3]; [8]", "result": 56, "unit": "%"}, {"measurement": "median progression-free survival (PFS)", "setting": "[3]; [8]", "result": 16.7, "unit": "months"}, {"measurement": "confirmed intracranial ORR", "setting": "[3]; [9]", "result": 67, "unit": "%"}, {"measurement": "median intracranial PFS", "setting": "[3]; [9]", "result": 18.4, "unit": "months"}, {"measurement": "decrease of systemic exposure (AUC)", "setting": "[4]; coadministration of strong CYP3A inducers", "result": 80, "unit": "%"}, {"measurement": "increase of systemic exposure (AUC)", "setting": "[4]; coadministration of strong CYP3A inhibitors", "result": 101, "unit": "%"}, {"measurement": "effect on systemic exposure (AUC)", "setting": "[4]; coadministration with a strong inhibitor of CYP2C8", "result": "did not meaningfully affect"}, {"measurement": "potency and selectivity as inhibitor of native EML4-ALK", "setting": "native EML4-ALK", "result": "more potent and selective inhibitor of native EML4-ALK"}, {"measurement": "contribution of 2C8 to metabolism", "setting": "2C8", "result": "minor contribution"}, {"measurement": "clinically significant laboratory values or electrocardiogram findings", "setting": "[5]; all participants", "result": "no participant had clinically significant laboratory values or electrocardiogram findings"}, {"measurement": "adverse events", "setting": "[5]; healthy volunteers with normal renal function (n = 8)", "result": "No healthy volunteers with normal renal function reported adverse events"}, {"measurement": "treatment-emergent adverse events", "setting": "[5]; patients with severe renal impairment (n = 8)", "result": "Two patients with severe renal impairment reported three treatment-emergent adverse events"}, {"measurement": "administered dose recovered in feces", "setting": "[6]", "result": 65, "unit": "%"}, {"measurement": "administered dose recovered in urine", "setting": "[6]", "result": 25, "unit": "%"}, {"measurement": "unchanged brigatinib as share of total radioactivity in feces", "setting": "[6]", "result": 41, "unit": "%"}, {"measurement": "unchanged brigatinib as share of total radioactivity in urine", "setting": "[6]", "result": 86, "unit": "%"}, {"measurement": "concentration dependence of protein binding", "setting": "plasma protein; mean fraction unbound at 2, 8, 24 h postdose, both renal function groups", "result": "not concentration-dependent"}, {"measurement": "effect of severe renal impairment on brigatinib plasma protein binding", "setting": "plasma protein; severe renal impairment vs normal renal function", "result": "no effect"}, {"measurement": "fraction unbound at 6 h", "setting": "[7]; healthy volunteers with normal renal function", "result": 0.09}, {"measurement": "fraction unbound at 6 h", "setting": "[7]; patients with severe renal impairment", "result": 0.08}]}]}
